The molecules below were run on enone reductase (assay: Substrate specificity of the enone reductase (standard enzyme assay with various substrates)). Conditions: 0.05% final concentration, 30° C.
Type: biochemical, Candida kefyr (Candida macedoniensis) IFO 0960
Method: (§1) The standard enzyme assay was performed as follows: a total volume of 1 ml of the basal reaction mixture (200 μl of 1 M Tris-HCl buffer pH 7.5, 100 μl of 80 mM NADH or NADPH, 100 μl of 0.658 M ketoisophorone, 600 μl H2O) was supplemented by 5 μl of the enzyme solution and incubated at 40° C. One unit of the enzyme activity was defined as the amount of the enzyme, which catalyzes the […] of 1 μmol of ketoisophorone per minute. The reaction mixture was extracted by 1 ml of ethylacetate to recover the levodione into the ethylacetate layer. The extract was analyzed by gas chromatography [column: ULBON HR-20M (Shinwa, Japan) 0.25 mmφ×30 m, column temperature: 160° C. (constant), injector temperature: 250° C., carrier gas: He (ca. 1 ml/min)]. The protein concentration was determined by using a Bio-Rad protein assay kit (Bio-Rad, USA).
Substrate specificity of the enzyme was determined by using the same enzyme assay method as described above under (1), except that various substrate solutions (0.05% final concentration in the reaction mixture) were used instead of ketoisophorone, and the reaction was done at 30° C. The relative activity (%) of different substrates is compared in Table 1, showing the best result with 3-butene-2-one.
For `C=CC(C)=O` [3-Butene-2-one], the “relative activity of different substrates (in words)” value was “best result”.

Same assay, conditions: as substrate, 0.05% final concentration, 30° C., ketoisophorone = 100
For `O=[N+]([O-])C1=CCCCC1` [1-Nitro-1-cyclohexen], the “Relative Activity (%)” value was 373.8%. For `O=C1C=CCCC1` [2-Cyclohexen-1-one], the “Relative Activity (%)” value was 252.1%. In the case of `C=CC(C)=O` [3-Butene-2-one], the “Relative Activity (%)” value is reported as 403.3%. For `O=CC=Cc1ccccc1` [Cinnamaldehyde], the “Relative Activity (%)” value was 216.7%. In the case of `CC1=CC(=O)CC(C)(C)C1=O` [Ketoisophorone, 2,6,6-trimethyl-2-cyclohexene-1,4-dione], the “Relative Activity (%)” value is reported as 100%. For R-(−)-Carvone, the “Relative Activity (%)” value was 56.3%.

These molecules were tested on enone reductase (assay: Effect of metal ions and other compounds on the enzyme activity). Conditions: not given.
Type: biochemical, Candida kefyr (Candida macedoniensis) IFO 0960
`O=[N+]([O-])[O-].[Ag+]` [AgNO3] was tested, and the “Relative Activity (%)” value was 49.1% and the “inhibition of the enzyme activity (in words)” value (“inhibition” below) was “inhibited the enzyme activity moderately”. With `O=S(=O)([O-])[O-].[Be+2]` [BeSO4] the “Relative Activity (%)” value was 80.9%. `[Ca+2].[Cl-].[Cl-]` [CaCl2] was tested, and the “Relative Activity (%)” value was 108%. `[Cl][Cd][Cl]` [CdCl2] was tested, and the “Relative Activity (%)” value was 104%. With `O=S(=O)([O-])[O-].[Cu+2]` [CuSO4] the “Relative Activity (%)” value was 55.9% and the “inhibition” value was “inhibited the enzyme activity moderately”. In the case of `O=C(O)CN(CCN(CC(=O)O)CC(=O)O)CC(=O)O` [EDTA], the “Relative Activity (%)” value is reported as 110%. In the case of `O=C(O)CI` [Iodoacetate], the “Relative Activity (%)” value is reported as 93.6%. `[Cl-].[K+]` [KCl] was tested, and the “Relative Activity (%)” value was 103%. In the case of `[Cl-].[Cl-].[Mg+2]` [MgCl2], the “Relative Activity (%)” value is reported as 111%. For `[Cl][Mn][Cl]` [MnCl2], the “Relative Activity (%)” value was 94.6%. `[NH4+].[O]=[V](=[O])[O-]` [NH4VO3] was tested, and the “Relative Activity (%)” value was 9.6% and the “inhibition” value was “inhibited the enzyme activity moderately”. For `[Cl-].[Na+]` [NaCl], the “Relative Activity (%)” value was 108%. `[F-].[Na+]` [NaF] was tested, and the “Relative Activity (%)” value was 101%. With `N#C[S-].[Na+]` [NaSCN] the “Relative Activity (%)” value was 93.6%. In the case of `[Cl][Ni][Cl]` [NiCl], the “Relative Activity (%)” value is reported as 108%. In the case of `O=[N+]([O-])[O-].O=[N+]([O-])[O-].[Pb+2]` [Pb(NO3)2], the “Relative Activity (%)” value is reported as 0% and the “inhibition” value is reported as “inhibited the enzyme activity strongly”. With `[Cl-].[Rb+]` [RbCl] the “Relative Activity (%)” value was 107%. `C[n+]1c2cc(N)ccc2cc2ccc(N)cc21.[Cl-]` [Trypaflavine] was tested, and the “Relative Activity (%)” value was 0% and the “inhibition” value was “inhibited the enzyme activity strongly”. For `O=S(=O)([O-])[O-].[Zn+2]` [ZnSO4], the “Relative Activity (%)” value was 101%. CoCl2 was tested, and the “Relative Activity (%)” value was 113%.

Same assay, conditions: compound added, final concentration of metal 1 mM, substrate 2-cyclohexen-1-one, None = 100
In the case of `N=C(N)N` [Guanidine], the “Relative Activity (%)” value is reported as 61.1%. `[Cl][Hg][Cl]` [HgCl2] was tested, and the “Relative Activity (%)” value was 40.8%. In the case of `[Cl-].[Li+]` [LiCl], the “Relative Activity (%)” value is reported as 104%.

Same assay, conditions: final concentration of metal 1 mM, substrate 2-cyclohexen-1-one
With `N=C(N)N` [Guanidine] the “inhibition” value was “inhibited the enzyme activity moderately”. With `[Cl][Hg][Cl]` [HgCl2] the “inhibition” value was “inhibited the enzyme activity moderately”.

These molecules were tested on enone reductase (assay: Cofactor requirement of the enzyme to convert ketoisophorone to levodione). Conditions: not given.
Type: biochemical, Candida kefyr (Candida macedoniensis) IFO 0960
Method: as §1
The cofactor requirement of the enzyme to convert ketoisophorone to levodione was investigated.
In the case of `NC(=O)C1=CN([C@@H]2O[C@H](COP(=O)(O)OP(=O)(O)OC[C@H]3O[C@@H](n4cnc5c(N)ncnc54)[C@H](O)[C@@H]3O)[C@@H](O)[C@H]2O)C=CC1` [NADH], the “serves as co-factor for the reductive reaction” value is reported as “could serve as a co-factor”. In the case of `NC(=O)C1=CN([C@@H]2O[C@H](COP(=O)(O)OP(=O)(O)OC[C@H]3O[C@@H](n4cnc5c(N)ncnc54)[C@H](OP(=O)(O)O)[C@@H]3O)[C@@H](O)[C@H]2O)C=CC1` [NADPH], the “serves as co-factor for the reductive reaction” value is reported as “could serve as a co-factor”.

— US7202068B2, “Enone reductase and methods of making and using thereof” (priority 2002, dated 2007)
